# Experimental data reported in paper PMC6528170 (Nature, 2009).
# Read-outs that look alike come from different tables or passages of the source.
# T1: Get3 (S. cerevisiae) (Saccharomyces cerevisiae, UniProt Q12154)
# T1 sequence (Q12154 1-354): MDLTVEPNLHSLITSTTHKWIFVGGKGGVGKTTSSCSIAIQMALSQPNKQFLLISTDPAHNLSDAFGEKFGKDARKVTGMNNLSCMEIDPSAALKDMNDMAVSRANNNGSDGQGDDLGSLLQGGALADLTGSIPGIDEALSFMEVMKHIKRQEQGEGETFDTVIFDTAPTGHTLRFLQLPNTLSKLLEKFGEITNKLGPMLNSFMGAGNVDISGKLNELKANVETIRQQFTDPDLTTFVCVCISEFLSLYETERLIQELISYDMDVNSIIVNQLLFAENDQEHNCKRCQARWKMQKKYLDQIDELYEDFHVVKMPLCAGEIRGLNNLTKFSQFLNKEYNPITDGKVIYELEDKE
# B1: Schizosaccharomyces pombe Get3 (natural protein, S. pombe, UniProt Q9P7F8 1-329, looked up)
# chain: MSFDPLPGTLENLLEQTSLKWIFVGGKGGVGKTTTSCSLAIQMSKVRSSVLLISTDPAHNLSDAFGTKFGKDARKVPGFDNLSAMEIDPNLSIQEMTEQADQQNPNNPLSGMMQDLAFTIPGIDEALAFAEILKQIKSMEFDCVIFDTAPTGHTLRFLNFPTVLEKALGKLGGLSSRFGPMINQMGSIMGVNANEQDLFGKMESMRANISEVNKQFKNPDLTTFVCVCISEFLSLYETERMIQELTSYEIDTHNIVVNQLLLDPNTTCPQCMARRKMQQKYLAQIEELYEDFHVVKVPQVPAEVRGTEALKSFSEMLVKPYVYPTSGKE
# B2: Saccharomyces cerevisiae Get3 (wild type) (natural protein, S. cerevisiae, UniProt Q12154 1-354, looked up)
# chain: T1 sequence (Q12154 1-354)
# Assays:
# Get3 (S. cerevisiae) [1] = biological target: Get3 (S. cerevisiae) (Saccharomyces cerevisiae, UniProt Q12154, D57N); assay: NADH-coupled microplate ATPase assay; format: biochemical; settings: Tris pH 7.5, 5 mM MgCl2, 20 mM NaCl, 30 °C, 2 μM Get3, 0.02% n-dodecyl-β-D-maltopyranoside
# Sequence of Get3 (S. cerevisiae) (Saccharomyces cerevisiae, UniProt Q12154, D57N) (Q12154 whole entry D57N): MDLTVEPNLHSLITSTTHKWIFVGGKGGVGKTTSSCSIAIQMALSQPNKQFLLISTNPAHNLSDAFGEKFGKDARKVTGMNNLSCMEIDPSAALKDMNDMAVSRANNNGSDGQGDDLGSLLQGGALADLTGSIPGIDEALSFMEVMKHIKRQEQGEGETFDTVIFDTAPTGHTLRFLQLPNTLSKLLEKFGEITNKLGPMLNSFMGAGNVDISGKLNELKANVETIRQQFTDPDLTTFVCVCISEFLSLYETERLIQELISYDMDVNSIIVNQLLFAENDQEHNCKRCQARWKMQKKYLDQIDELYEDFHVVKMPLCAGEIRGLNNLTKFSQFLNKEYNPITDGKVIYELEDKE
# Get3 (S. cerevisiae) [2] = biological target: T1, Get3 (S. cerevisiae); assay: NADH-coupled microplate ATPase assay; format: biochemical; settings: Tris pH 7.5, 5 mM MgCl2, 20 mM NaCl, 30 °C, 2 μM Get3, 0.02% n-dodecyl-β-D-maltopyranoside
# crystal structure [3] = biological target: the molecule itself; assay: crystal structure
# crystal structure [4] = biological target: the molecule itself; assay: crystal structure; remark: listed apart in the source
molecule,measurement,setting,value
Nc1ncnc2c1ncn2[C@@H]1O[C@H](COP(=O)(O)OP(=O)(O)OP(=O)(O)O)[C@@H](O)[C@H]1O [ATP],NADH-coupled microplate ATPase assay,Get3 (S. cerevisiae) [1],an Asp57Asn mutant is defective for ATP hydrolysis
same,"apparent Km,ATP",Get3 (S. cerevisiae) [2],"used to calculate Vmax and apparent Km,ATP values"
B1,stoichiometry N,crystal structure [3],2
B2,stoichiometry N,crystal structure [4],2
